Assay results: patent publication US12044651B2, “Sensor device and methods” (SCENTIAN BIO LIMITED, priority 2016, dated 2024)

Assay: CNT-FET control covalently functionalized with empty nanodiscs (Example 3)
Settings: empty nanodiscs 1:100 dilution; increasing amounts of ligand
Experimental: The dispersion was sonicated until a clear solution was obtained. The temperature was kept at 25° C. throughout the sonication process. The thiolpyridine solution was prepared by dissolving 10 mg of 2-Mercaptopyridine (99%, Sigma Aldrich) in 1 ml of methanol. The solution was spun coated on a polydimethylsiloxane (PDMS) surface at 2000 rpm for one minute. Before the spin coating process, the PDMS surface was cleaned by a 50 W Oxygen plasma for 1 minute to improve the wettability. The cleaned substrates were placed upside down on the PDMS surface for three minutes and washed in ethanol to remove the excess thiolpyridine molecules. Then the substrates were transferred into the CNT suspension and immersed into the suspension for 10 minutes. The samples were removed from the suspension and dipped into Ethanol for another 10 minutes to remove the thiolpyridine molecules in the SWNT network. The alignment markers were deposited by defining the markers by photolithography and thermal evaporation of 5 nm Chromium and 50 nm of Gold. The metal Lift off was done by acetone immersion for 15 minutes followed by an Isopropyl alcohol (IPA) wash and N2 blow dry. The result is a uniform thin film CNT network covering the entire substrate surface. Nanodiscs were prepared using a protocol modified from Bayburt et al. 2010 and 2003^55, 56. Nanodiscs were formed at an MSP:protein:lipid ratio of 1:0.2:150. […]

## COC(=O)c1ccccc1O [methyl salicylate]
  current response: no increase in current
